Assay results reported in US10576039B2, “Ophthalmic formulation comprising citicoline carried by liposome for the treatment of glaucoma” (Omikron Italia S.r.l., priority 2016, dated 2020).

How the values were obtained:
[1] = Citicoline in vitreous humour and blood by HPLC after topical instillation of liposome solution; assay type: in vivo, male mice of Wistar-Kyoto strain
Text: For the experimental group 12 animals were used for an adequate statistical management of the results (average, standard deviation and significance).
The used number of animals, following statistical evaluation, represents the minimum number therefrom it is possible to obtain significant data. In the study male mice of Wistar-Kyoto strain were used according to previous experiments performed by the research group.
The animals were kept and manipulated in a structure suitable for keeping the animals under optimum conditions (temperature, humidity, ventilation, hygienic conditions). In the study a formulation in solution for ophthalmic use was utilized constituted by […] liposomes including 2% citicoline sodium salt. […]
Moreover on each animal an endocardial blood sample was taken after total anaesthesia both before and after treatment, just before being sacrificed, by using a test tube with EDTA; on such sample, for each animal, the blood count and citicoline presence were determined. […]
After extraction and subsequent centrifugation at 13,000 rpm for 5 minutes at 5° C. the supernatant was taken and injected into a HPLC system equipped with a ultraviolet detector Diode Array and chromatographic column C18—Kromasil 250×4.6 mm with 5-μm particles. Of course, all samples, even the checks, were subjected to the same kind of treatment before being analysed in HPLC. […]

[2] = taken orally, cited from earlier work

SMILES: C[N+](C)(C)CCOP(=O)(O)OP(=O)([O-])OC[C@H]1O[C@@H](n2ccc(N)nc2=O)[C@H](O)[C@@H]1O [Citicoline, cytidine-5′-diphosphocholine]
- vitreous humour citicoline as % of the amount applied topically ([1]; eyes treated topically with liposome solution for three days): 13%
- presence/penetration of citicoline in the vitreous humour (in words) ([1]; topical treatment, HPLC elution profile, comparison with citicoline administered in solution (Parisi et al., 2015; Roberti et al., 2015)): present in high concentrations
- time of plasma peak after ingestion ([2]; first peak): 1 h
- time of larger second plasma peak ([2]; later peak): 24 h
- fraction excreted in the feces [2]: less than 1%
